# Experimental data as given in article PMC3480357, “Fragment-Hopping-Based Discovery of a Novel Chemical Series of Proto-Oncogene PIM-1 Kinase Inhibitors” (PLoS ONE, 2012).
# Legend:
# PIM-3 = PIM-3 (Homo sapiens, UniProt Q86V86); test: PIM-3 kinase ADP Hunter Plus assay; type: biochemical; settings: 100 µM ATP, Figure 1
# Method: Kinase activity was measured with the commercial ADP Hunter™ Plus assay (DiscoveRx Ref. #33-016), a homogeneous assay measuring ADP accumulation, as a universal product of kinase activity. The assay was conducted following the manufacturer’s recommendations and adapting the protein and substrate concentrations for optimal conditions. The kinase assay buffer was 15 mM HEPES, pH 7.4, 20 mM NaCl, 1 mM EGTA, 0.02% Tween-20, 10 mM MgCl2 and 0.1 mg/ml BGG (bovine γ-globulin). All PIM kinase assays were performed with 100 µM PIMtide ([…]) as the peptide substrate and 100 µM ATP. The protein concentrations were 50, 350 and 500 ng/µl for PIM-1, 2 and 3, respectively. To calculate the IC50 of the ETP-compounds, serial 1∶5 dilutions were prepared and the reaction was started with the addition of ATP. The reaction was incubated for 1 h at 25°C. Reagents A and B (DiscoveRx) were sequentially added to the wells, and the plates were incubated for 30 min at 37°C. Fluorescence counts were read in a Victor instrument (Perkin Elmer) with the recommended settings (544 and 580 nm as the excitation and emission wavelengths, respectively). Values were plotted against the inhibitor concentrations and fit to a sigmoid dose–response curve using GraphPad software.
# PIM-2 = PIM-2 (Homo sapiens, UniProt Q9P1W9); test: PIM-2 kinase ADP Hunter Plus assay; type: biochemical; settings: 100 µM ATP
# PIM-2, sequence (Q9P1W9 whole entry): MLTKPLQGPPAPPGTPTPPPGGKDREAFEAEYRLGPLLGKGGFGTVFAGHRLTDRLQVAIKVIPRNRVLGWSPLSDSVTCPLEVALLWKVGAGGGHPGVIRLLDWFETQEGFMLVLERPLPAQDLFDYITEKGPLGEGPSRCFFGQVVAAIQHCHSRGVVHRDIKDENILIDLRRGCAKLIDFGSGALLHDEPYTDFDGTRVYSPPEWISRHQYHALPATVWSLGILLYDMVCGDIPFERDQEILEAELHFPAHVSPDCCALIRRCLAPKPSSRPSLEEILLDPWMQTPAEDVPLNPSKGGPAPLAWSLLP
structure (smiles),measurement,setting,value
"CC(=O)c1cccc(-c2cnc3ccc(NCC4CC4)nn23)c1 [Compound 2, reference compound]",IC50,PIM-3,1000 nM
same,IC50,PIM-2,443 nM
